In the assay the target is PDE-III (Homo sapiens, UniProt Q14432). As to the kind of experiment: Phosphodiesterase inhibition, purified PDE-III isozyme. The following applies: for PDE-IV Versus PDE-III, IC50 Ratio: selectivity of inhibition of PDE-III over PDE-IV. The format is biochemical.
Where [1] appears, read: read-out: PDE-III IC50, PDE-III isolated from human platelets, 30°C, 30 minutes, [3H]-cAMP 0.1 µM and cAMP 0.1 µM, duplicates.

Where two headings read alike, the source gives them in different places.

The results in this text go back to publication PMC9162272 (Journal of Cardiovascular Pharmacology, 2022).

One may read the IC50 as the midpoint of a concentration-inhibition curve.

PDE-III, sequence (Q14432 whole entry): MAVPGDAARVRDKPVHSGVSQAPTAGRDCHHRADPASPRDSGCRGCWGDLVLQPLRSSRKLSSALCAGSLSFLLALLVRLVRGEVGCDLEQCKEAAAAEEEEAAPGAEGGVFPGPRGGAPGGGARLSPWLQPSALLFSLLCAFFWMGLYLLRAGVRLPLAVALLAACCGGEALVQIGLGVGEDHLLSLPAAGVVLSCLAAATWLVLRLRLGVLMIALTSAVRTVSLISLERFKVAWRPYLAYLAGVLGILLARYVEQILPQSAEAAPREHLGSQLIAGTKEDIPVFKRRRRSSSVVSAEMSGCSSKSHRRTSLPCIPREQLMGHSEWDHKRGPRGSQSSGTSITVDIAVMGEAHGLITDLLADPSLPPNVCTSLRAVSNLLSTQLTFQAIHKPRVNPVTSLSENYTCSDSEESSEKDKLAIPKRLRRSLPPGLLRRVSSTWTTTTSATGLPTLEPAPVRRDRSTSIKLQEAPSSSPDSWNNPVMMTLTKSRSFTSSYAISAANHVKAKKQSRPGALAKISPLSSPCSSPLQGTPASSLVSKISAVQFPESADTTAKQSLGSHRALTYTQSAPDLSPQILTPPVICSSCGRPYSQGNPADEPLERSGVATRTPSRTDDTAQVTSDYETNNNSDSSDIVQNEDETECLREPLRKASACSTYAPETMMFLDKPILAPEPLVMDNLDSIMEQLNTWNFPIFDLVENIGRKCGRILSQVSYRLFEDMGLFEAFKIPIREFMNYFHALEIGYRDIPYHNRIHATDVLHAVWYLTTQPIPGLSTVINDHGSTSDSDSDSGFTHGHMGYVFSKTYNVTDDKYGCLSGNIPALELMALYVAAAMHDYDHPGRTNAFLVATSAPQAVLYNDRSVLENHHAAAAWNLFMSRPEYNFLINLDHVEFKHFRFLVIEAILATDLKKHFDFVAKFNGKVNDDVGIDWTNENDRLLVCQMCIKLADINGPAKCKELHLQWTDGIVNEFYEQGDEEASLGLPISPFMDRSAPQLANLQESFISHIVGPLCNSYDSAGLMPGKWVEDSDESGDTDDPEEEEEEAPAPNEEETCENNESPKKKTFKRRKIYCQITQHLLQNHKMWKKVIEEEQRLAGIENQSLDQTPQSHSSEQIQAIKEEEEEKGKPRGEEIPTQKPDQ

In the case of `C[C@@H]1CC(=O)NN=C1c1ccc(NN=C(C#N)C#N)cc1` [Levosimendan, levosimendan, reference compound], the IC50 was determined as 2.1 nM and the “PDE-IV Versus PDE-III, IC50 Ratio” value is on record as 7619.
As to `C[C@@H]1CC(=O)NN=C1c1ccc(N)cc1` [OR-1855], the “PDE-IV Versus PDE-III, IC50 Ratio” value turned out to be 100. Moreover, the IC50 under setting [1] came to 5000 nM.
Taken in the same sequence, the figures for `CC(=O)Nc1ccc(C2=NNC(=O)C[C@H]2C)cc1` [OR-1896] were 3043 and 94 nM.
